Reference: article PMC8875629, “Novel Antioxidant Peptides from Crassostrea Hongkongensis Improve Photo-Oxidation in UV-Induced HaCaT Cells” (Marine Drugs, 2022)

What was measured:
[1] = system: UV-irradiated HaCaT cells; test: Cell viability of UV-irradiated HaCaT cells after pretreatment, CCK-8; assay type: cell-based, human; conditions: pretreatment one day, UV-irradiation
Protocol: For UV-irradiation (Combined UVA and UVB irradiation), HaCaT cells were cultured in 6-well plates (3 × 10^5 cells/well), 12-well plates (1 × 10^5 cells/well), and 96-well plates (1 × 10^4 cells/well) for one day. When cells sufficiently adhered, the medium was removed and cells were washed twice with PBS. Each well contained a thin layer of PBS to keep cell surfaces from drying. The lids of culture plates were opened, and the plates were placed under a UV lamp emitting both UVA (365 nm) and UVB (310 nm) light for 8 min. Irradiation dose was calculated as: Dose (mJ/cm^2) = Exposure time (s) × Intensity (mW/cm^2). After irradiation, cells were washed with warm PBS and incubated with serum-free DMEM for one day or longer.

HaCaT cells = test: Cytotoxicity in HaCaT cells, CCK-8; conditions: serum-free medium
Protocol: Cells were cultured in Dulbecco’s modified Eagle’s medium (DMEM; Gibco, Thermo Fisher Scientific, Waltham, MA, USA) supplemented with 10% heat-inactivated fetal bovine serum (FBS; Gibco) and 1% antibiotics [100 U/mL penicillin and 100 µg/mL streptomycin (Invitrogen, Thermo Fisher Scientific, Waltham, MA, USA)] at 37 °C in a humidified 5% CO2 incubator (SANYO, Ōsaka, JPN). HaCaT cells were subcultured when they reached 80% to 90% confluence. Cells were cultured for 12 h in 10% heat-inactivated FBS before being used for experiments. When required, HaCaT cells were treated with OPs in a serum-free medium and incubated under the same conditions (Figure 15B).
Cell viability was evaluated by measuring the dehydrogenase-catalyzed formation of a yellow dye in living cells. In the presence of electronic coupling reagents, WST-8 (tetrazolium salt 2-(2-methoxy-4-nitrophenyl)-3-(4-nitrophenyl)-5-(2,4-disulfophenyl) -2H-tetrazolium, monosodium salt (CCK-8)) is reduced to formazan, a yellow dye, by dehydrogenase.
Cells were seeded on 96-well plates at a density of 1 × 10^4 cells/well; viability was measured 24 h after UV-irradiation. […] Absorbance was measured using a microplate reader (Varioskan Flash; Thermo, Waltham, MA, USA) at λ = 450 nm. […] Cytotoxicity and optimal concentrations of OPs were determined using similar steps.

MMP-1 = MMP-1 expression in UV-irradiated HaCaT cells, ELISA; assay type: cell-based, human
Protocol: PINP and MMP-1 levels were measured in cell culture media using enzyme-linked immunoassay (ELISA) kits (Yutong Biological Technology Co., Changzhou, China). All experiments were conducted according to the manufacturer’s instructions. Purified Human MMP-1 antibody is coated in microtiter plate wells, making solid-phase antibodies. Then add the sample to the wells, a Combined antibody which With HRP labeled, become antibody-antigen-enzyme-antibody complex, after washing Completely, Add TMB substrate solution, TMB substrate becomes blue color At HRP enzyme-catalyzed, the reaction is terminated by the addition of a sulphuric acid solution and the color change is measured spectrophotometrically at a wavelength of 450 nm. The concentration of MMP-1 in the samples is then determined by comparing the O.D. of the samples to the standard curve. The content of PINP was determined on the same principles.

| Substance | Effect on survival of UV-irradiated HaCaT cells [1] | Concentration without cytotoxicity (HaCaT cells) [µg/mL] | Abnormal upregulation of MMP-1 (synthetic peptides) (MMP-1) |
| --- | --- | --- | --- |
| TALAIDAIINQK [Peptide III, synthesized peptide identified in OP5-3] | beneficial effects |  |  |
| GVAMNPVDHPHGGGEGR [Peptide V] |  | 0 to 200 |  |
| AIVAEVNEAAK [Peptide I, synthesized peptide identified in OP5-3] |  |  | most prominent effect |
| LICIVPK [Peptide VI, synthesized peptide identified in OP5-3] | beneficial effects | 0 to 600 |  |
